Source: patent publication US12678518B2, “Theranostic probe and its use for targeting and/or labeling the EGFR kinase and/or the cells expressing EGFR or its family members” (Tianjin University, priority 2019, dated 2026)

Experiments:
[1] = target: T1, EGFR L834R (Homo sapiens, UniProt P00533, L858R); assay: Flowcytometry of PDCy3 binding to cells expressing EGFR L834R mutant; assay type: cell-based; settings: L834R mutation, 1 μM PDCy3
T1 construct: plasmids encoding human EGFR (1-988) and split YFP fragments; expressed in transfected cells; host or cells: HEK 293T
Protocol: Cell sorting. Following starvation in EX-Cell 293 Serum-Free Medium for 44 hours, transfected cells were treated with gefitinib, PDCy3, or EGF for 4 hours at 37° C. Then, the cells were washed twice with 500 μl/well ice-cold PBS, and were re-suspended in 400 μl/well PBS. The final cell density was estimated to be 5×10^5˜1×10^6 cells/ml. To detect EGFR expression, 3 μd anti-EGFR 528 antibody (santa cruz biotechnology inc, USA) at 200 μg/ml concentration was added to each well of re-suspended cells. After 30-minute incubation on ice, cells were washed twice with 500 μl/well PBS, and were re-suspended in […]. Then, 0.3 μl FITC-labelled secondary antibody at a concentration of 2 mg/ml was added to each sample. After incubation on ice for 30 minutes, cells were washed three times with PBS, re-suspended in 400 μl/well PBS, and analyzed by flowcytometry using a BD FACS Calibur machine.
Cell sorting. Following starvation in EX-Cell 293 Serum-Free Medium for 44 hours, transfected cells were treated with gefitinib, PDCy3, or EGF for 4 hours at 37° C. Then, the cells were washed twice with 500 μL/well ice-cold PBS, and were re-suspended in 400 μL/well PBS. The final cell density was estimated to be 5×10^5˜1×10^6 cells/mL. […] After incubation on ice for 30 minutes, cells were washed three times with PBS, re-suspended in 400 μL/well PBS, and analyzed by floweytometry using a BD FACS Calibur machine.

[2] = target: T2, EGFR dimers (L834R/V924R) (Homo sapiens, UniProt P00533, L858R/V948R); assay: Protein complementary assay (split YFP), PDCy3 binding to EGFR dimers, L834R with V924R; assay type: cell-based; settings: V924R on top of L834R, 1 μM PDCy3
T2 construct: one encoding human EGFR(1-998) fused with a split YFP-N(1-172) fragment; the other encoding hEGFR(1-998) linked to a split YFP-C(155-238) fragment; expressed in transfected cells; host or cells: HEK 293T
From the text: Protein complementary assay. For protein complementary assay, we designed two complementary constructs: one encoding human EGFR(1-998) fused with a split YFP-N(1-172) fragment, and the other encoding hEGFR(1-998) linked to a split YFP-C(155-238) fragment. Kinase mutations were introduced on both constructs to make a complementary pair. All the constructs were verified by sequencing. The paired constructs encoding the same receptor were co-transfected into HEK 293T cells. Transfected cells were starved in EX-Cell 293 Serum-Free Medium for 44 hours before treatment with 1 μM PDCy3 for additional 4 hours. The dimerization of the EGF receptors and the binding of dimerized receptors to PDCy3 were analyzed by flowcytometry.
To further investigate how EGFR kinase dimerization affects PDCy3 binding, we did a protein complementary assay. In the assay, split YFP fragments were individually fused to the C-terminus of the full length EGFR, and EGF kinase dimerization was reported by the fluorescence of assembled YPF from co-transfected receptors (FIG. 4A)^23. As shown in the FIG. 4B, the cells with co-expressed EGFR dimers could be divided into two populations. In one population, the quantity of bound PDCy3 increased linearly as a function of the expression levels of EGFR dimers (FIG. 4C). But in the other population, the quantity of bound PDCy3 was independent of the expressed EGFR dimers. […]

CN1/C(=C/C=C/C2=[N+](CCCCCC(=O)NCCC/C=C/C(=O)Nc3ccc4ncnc(Nc5cccc(Br)c5)c4c3)c3ccc(S(=O)(=O)O)cc3C2(C)C)C(C)(C)c2cc(S(=O)(=O)[O-])ccc21 [PDCy3, 1-(6-((E)-6-(4-(3-bromophenylamino)quinazolin-6-ylamino)-6-oxohex-4-enylamino)-6-oxohexyl)-3,3-dimethyl-2-((1E,3E)-3-(1,3,3-trimethyl-5-sulfonatoindolin-2-ylidene)prop-1-enyl)-3H-indolium-5-sulfonate]
population (fraction) of PDCy3-bound, EGFR positive cells [1]: 65.9%
fraction of the population with the higher sensitivity to PDCy3 (population A) [2]: 49.2%
